This is an account of results in paper PMC10747725, “The Synthesis, In Vitro Bio-Evaluation, and In Silico Molecular Docking Studies of Pyrazoline–Thiazole Hybrid Analogues as Promising Anti-α-Glucosidase and Anti-Urease Agents” (Pharmaceuticals, 2023).

One data set addresses urease (Canavalia ensiformis, UniProt P07374). As to the kind of experiment: biochemical. The protocol: During the experiment, 55 L of buffer solution containing 100 mM of urea was combined with 25 L of enzyme solution to prepare reaction mixtures. A volume of 5 L containing 1 mM concentrations of recently produced compounds was then added to these mixtures. After 15 min of incubation at 30 °C, the reactions were allowed to occur in 96-well plates. The detection of ammonia generation by urease was carried out by using the Indophenol technique. A phenol reagent containing 1% w/v phenol and 0.005% w/v sodium nitroprusside was added to each well along with 70 µL of an alkali reagent containing 0.5% w/v NaOH and 0.1% active chloride NaOCl. Utilizing a microplate reader manufactured by Molecular Device in the United States, the increased absorbance was measured at 630 nm after another 50 min. In triplicate, the aforementioned procedures were performed using a constant end volume of […]. The final data, representing the rate at which the absorbance changed per minute, were analysed with the SoftMax Pro program by Molecular Device, New York, NY, USA. In alkaline conditions with a pH of 8.2, the experiments were conducted using 0.01 M K2HPO4·3H2O, 1 mM EDTA, and 0.01 M LiCl. A conventional inhibitor of urease, thiourea, was used in this study to determine the percentage of inhibition.

A further data set deals with α-glucosidase. As to the kind of experiment: α-Glucosidase inhibitory assay. The class given is biochemical. As to conditions: in vitro; standard acarbose; N.A * = Not active; read-out: α-Glucosidase IC50 (µM ±SEM). The protocol: A procedure based on the previously reported procedure with minor modifications was used to determine the inhibitory capacity of the newly designed derivatives of benzothiazole-derived pyrazoline-based thiazole (1–17). For 20 min at 37 °C, […] in 100 mM of phosphate buffer (pH 6.8) for 20 min. The reaction mixture was then incubated for 1 h at 37 °C with 250 mL of 4-nitrophenyl-b-D-glucopyranoside solution and 250 mL of 1% starch dissolved in 100 mM of phosphate buffer (pH 6.8), respectively. Following this, the reaction mixture was heated for 10 min with 1.0 mL of 3,5-dinitrosalicylic acid colouring reagent. The absorbance of the final reaction mixture was determined for α-glucosidase at 405 nm. To correct the absorbance, a blank was prepared. […] A percentage of the inhibitory activity was calculated using a control sample without the inhibitors.

Where two headings read alike, the source gives them in different places.

Sequence of urease (P07374 whole entry, looked up): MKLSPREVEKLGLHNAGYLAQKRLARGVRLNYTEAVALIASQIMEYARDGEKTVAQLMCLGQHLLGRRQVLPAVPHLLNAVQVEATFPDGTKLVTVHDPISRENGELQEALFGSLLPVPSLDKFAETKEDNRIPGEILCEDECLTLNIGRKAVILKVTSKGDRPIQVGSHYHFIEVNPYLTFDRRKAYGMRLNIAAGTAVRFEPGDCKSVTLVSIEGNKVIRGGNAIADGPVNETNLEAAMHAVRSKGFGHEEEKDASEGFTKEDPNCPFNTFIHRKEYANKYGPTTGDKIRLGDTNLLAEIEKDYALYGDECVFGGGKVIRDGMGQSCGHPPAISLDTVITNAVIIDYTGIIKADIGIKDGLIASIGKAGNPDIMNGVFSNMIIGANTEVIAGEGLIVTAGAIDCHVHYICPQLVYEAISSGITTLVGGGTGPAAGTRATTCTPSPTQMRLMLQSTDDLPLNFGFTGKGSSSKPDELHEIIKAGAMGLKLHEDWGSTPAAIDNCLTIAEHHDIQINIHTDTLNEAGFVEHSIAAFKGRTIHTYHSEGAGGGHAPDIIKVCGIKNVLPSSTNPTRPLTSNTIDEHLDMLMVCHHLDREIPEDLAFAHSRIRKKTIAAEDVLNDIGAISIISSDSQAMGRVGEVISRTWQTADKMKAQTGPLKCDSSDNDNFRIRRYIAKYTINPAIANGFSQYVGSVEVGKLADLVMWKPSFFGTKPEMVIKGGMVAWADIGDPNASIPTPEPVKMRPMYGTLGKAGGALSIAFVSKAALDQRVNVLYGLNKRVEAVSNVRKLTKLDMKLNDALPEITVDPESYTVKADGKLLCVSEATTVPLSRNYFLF

Broadly, the IC50 is the midpoint of a concentration-inhibition curve. For orientation: melting point means the temperature of the solid-liquid transition. Turning to `Clc1cnc(Cl)c(C2=NN(c3nc(-c4cccc(Cl)c4Cl)cs3)C(c3nc4ccccc4s3)C2)c1` (stereo not shown) [Compound 17, 2-(1-(4-(2,3-Dichlorophenyl)thiazol-2-yl)-3-(2,5-dichloropyridin-3-yl)-4,5-dihydro-1H-pyrazol-5-yl)benzo[d]thiazole], the melting point was in the range of 236 to 237 °C. In addition, the 50% inhibitory concentration (IC50) at urease was 31.3 ± 0.4 µM. Also, the IC50 at α-glucosidase stood at 6.8 ± 0.2 µM.
`Fc1ccc(-c2csc(N3N=C(c4cc(Cl)cnc4Cl)CC3c3nc4ccccc4s3)n2)cc1` (stereo not shown) [Compound 12, 2-(3-(2,5-Dichloropyridin-3-yl)-1-(4-(4-fluorophenyl)thiazol-2-yl)-4,5-dihydro-1H-pyrazol-5-yl)benzo[d]thiazole] returned a melting point of 226 to 227 °C. Inhibition at urease was half-maximal at 22.3 ± 0.8 µM (IC50). The concentration for half-maximal inhibition (IC50) at α-glucosidase turned out to be 3.5 ± 0.1 µM.
The matching figures for `FC(F)(F)c1ccc(-c2csc(N3N=C(c4cc(Cl)cnc4Cl)CC3c3nc4ccccc4s3)n2)cc1` (stereo not shown) [Compound 6, 2-(3-(2,5-Dichloropyridin-3-yl)-1-(4-(4-(trifluoromethyl)phenyl)thiazol-2-yl)-4,5-dihydro-1H-pyrazol-5-yl)benzo[d]thiazole]: 225 to 226 °C, 14.3 ± 3.9 µM and 2.5 ± 0.3 µM.
The matching figures for `Cc1ccc(C)c(-c2csc(N3N=C(c4cc(Cl)cnc4Cl)CC3c3nc4ccccc4s3)n2)c1` (stereo not shown) [Compound 2, 2-(3-(2,5-Dichloropyridin-3-yl)-1-(4-(2,5-dimethylphenyl)thiazol-2-yl)-4,5-dihydro-1H-pyrazol-5-yl)benzo[d]thiazole]: 219 to 220 °C, 37.2 ± 1.9 µM and 14.2 ± 0.1 µM.
As for `Cc1ccc(-c2csc(N3N=C(c4cc(Cl)cnc4Cl)CC3c3nc4ccccc4s3)n2)cc1` (stereo not shown) [Compound 3, 2-(3-(2,5-Dichloropyridin-3-yl)-1-(4-(p-tolyl)thiazol-2-yl)-4,5-dihydro-1H-pyrazol-5-yl)benzo[d]thiazole], the melting point is 227 to 228 °C. The IC50 at urease stood at 33.2 ± 3.8 µM. The IC50 on α-glucosidase was 7.5 ± 0.1 µM.
The compound `CN(C)c1ccc(-c2csc(N3N=C(c4cc(Cl)cnc4Cl)CC3c3nc4ccccc4s3)n2)cc1` (stereo not shown) [Compound 8, 4-(2-(5-(Benzo[d]thiazol-2-yl)-3-(2,5-dichloropyridin-3-yl)-4,5-dihydro-1H-pyrazol-1-yl)thiazol-4-yl)-N,N-dimethylaniline] showed a melting point of 231 to 232 °C. Moreover, 39.2 ± 0.6 µM corresponded to half-maximal inhibition on urease (IC50).
Regarding `NC(N)=S` [Thiourea, thiourea, reference compound], at urease (in vitro, standard thiourea, N.A * = Not active, read-out: Urease IC50 (µM ± SEM)), the IC50 was 31.4 ± 2.5 µM.
`Clc1cnc(Cl)c(C2=NN(c3nc(-c4ccc(OCc5ccccc5)cc4)cs3)C(c3nc4ccccc4s3)C2)c1` (stereo not shown) [Compound 13, 2-(1-(4-(4-(Benzyloxy)phenyl)thiazol-2-yl)-3-(2,5-dichloropyridin-3-yl)-4,5-dihydro-1H-pyrazol-5-yl)benzo[d]thiazole] registered a melting point of 242 to 243 °C.
Compound `O=[N+]([O-])c1ccccc1-c1csc(N2N=C(c3cc(Cl)cnc3Cl)CC2c2nc3ccccc3s2)n1` (stereo not shown) [Compound 5, 2-(3-(2,5-Dichloropyridin-3-yl)-1-(4-(2-nitrophenyl)thiazol-2-yl)-4,5-dihydro-1H-pyrazol-5-yl)benzo[d]thiazole] returned a melting point of 224 to 225 °C. The compound further came in with an IC50 at urease of 32.5 ± 2.1 µM. Also, at α-glucosidase, the concentration for half-maximal inhibition (IC50) is 6.7 ± 0.3 µM.
`Clc1cnc(Cl)c(C2=NN(c3nc(-c4ccc5ccccc5c4)cs3)C(c3nc4ccccc4s3)C2)c1` (stereo not shown) [Compound 16, 2-(3-(2,5-Dichloropyridin-3-yl)-1-(4-(naphthalen-2-yl)thiazol-2-yl)-4,5-dihydro-1H-pyrazol-5-yl)benzo[d]thiazole] yielded a melting point of 243 to 244 °C.
`O=[N+]([O-])c1cc(Br)ccc1-c1csc(N2N=C(c3cc(Cl)cnc3Cl)CC2c2nc3ccccc3s2)n1` (stereo not shown) [Compound 1, 2-(1-(4-(4-Bromo-2-nitrophenyl)thiazol-2-yl)-3-(2,5-dichloropyridin-3-yl)-4,5-dihydro-1H-pyrazol-5-yl)benzo[d]thiazole]: the melting point was in the range of 233 to 234 °C. The compound also yielded an IC50 against urease of 41.5 ± 1.7 µM. Moreover, on α-glucosidase, the concentration for half-maximal inhibition (IC50) came out at 13.1 ± 0.4 µM.
The matching figures for `O=[N+]([O-])c1ccc(-c2csc(N3N=C(c4cc(Cl)cnc4Cl)CC3c3nc4ccccc4s3)n2)cc1` (stereo not shown) [Compound 4, 2-(3-(2,5-Dichloropyridin-3-yl)-1-(4-(4-nitrophenyl)thiazol-2-yl)-4,5-dihydro-1H-pyrazol-5-yl)benzo[d]thiazole]: 232 to 233 °C, 23.3 ± 2.4 µM and 4.1 ± 0.3 µM.
As for `Oc1cc(Cl)cc(Cl)c1-c1csc(N2N=C(c3cc(Cl)cnc3Cl)CC2c2nc3ccccc3s2)n1` (stereo not shown) [Compound 14, 2-(2-(5-(Benzo[d]thiazol-2-yl)-3-(2,5-dichloropyridin-3-yl)-4,5-dihydro-1H-pyrazol-1-yl)thiazol-4-yl)-3,5-dichlorophenol], the melting point was 238 to 239 °C. Inhibition against urease was half-maximal at 21.8 ± 2.9 µM (IC50). Further, the IC50 on α-glucosidase was determined as 3.4 ± 0.1 µM.
`Fc1ccccc1-c1csc(N2N=C(c3cc(Cl)cnc3Cl)CC2c2nc3ccccc3s2)n1` (stereo not shown) [Compound 11, 2-(3-(2,5-Dichloropyridin-3-yl)-1-(4-(2-fluorophenyl)thiazol-2-yl)-4,5-dihydro-1H-pyrazol-5-yl)benzo[d]thiazole]: the melting point lay within 221 to 222 °C.
On to `O=[N+]([O-])c1cc(Cl)ccc1-c1csc(N2N=C(c3cc(Cl)cnc3Cl)CC2c2nc3ccccc3s2)n1` (stereo not shown) [Compound 9, 2-(1-(4-(4-Chloro-2-nitrophenyl)thiazol-2-yl)-3-(2,5-dichloropyridin-3-yl)-4,5-dihydro-1H-pyrazol-5-yl)benzo[d]thiazole], for which the melting point fell in the range of 230 to 231 °C. The same compound came in with an IC50 against urease of 29.4 ± 0.1 µM. In addition, at α-glucosidase, the IC50 amounted to 4.4 ± 0.3 µM.
Compound `COc1ccc(OC)c(-c2csc(N3N=C(c4cc(Cl)cnc4Cl)CC3c3nc4ccccc4s3)n2)c1` (stereo not shown) [Compound 10, 2-(3-(2,5-Dichloropyridin-3-yl)-1-(4-(2,5-dimethoxyphenyl)thiazol-2-yl)-4,5-dihydro-1H-pyrazol-5-yl)benzo[d]thiazole] came in with a melting point of 234 to 235 °C. The compound further displayed a concentration for half-maximal inhibition (IC50) against urease of 33.7 ± 0.1 µM. The 50% inhibitory concentration (IC50) on α-glucosidase is 8.9 ± 0.2 µM.
For `Oc1cc(F)ccc1-c1csc(N2N=C(c3cc(Cl)cnc3Cl)CC2c2nc3ccccc3s2)n1` (stereo not shown) [Compound 7, 2-(2-(5-(Benzo[d]thiazol-2-yl)-3-(2,5-dichloropyridin-3-yl)-4,5-dihydro-1H-pyrazol-1-yl)thiazol-4-yl)-5-fluorophenol] the same measures were 228 to 229 °C, 19.2 ± 0.1 µM and 3.2 ± 0.1 µM.
The compound `Cc1cc(-c2csc(N3N=C(c4cc(Cl)cnc4Cl)CC3c3nc4ccccc4s3)n2)cc(C)c1Br` (stereo not shown) [Compound 15, 2-(1-(4-(4-Bromo-3,5-dimethylphenyl)thiazol-2-yl)-3-(2,5-dichloropyridin-3-yl)-4,5-dihydro-1H-pyrazol-5-yl)benzo[d]thiazole] returned a melting point of 221 to 222 °C.
